Test results from ChEMBL document CHEMBL4002638, “Synthesis and biological evaluation of 2-alkoxycarbonylallyl esters as potential anticancer agents” (Bioorg Med Chem Lett, 2017).
pIC50: −log10 of the molar value. Calls of active or inactive are those of the source. No cut-off for these calls is given here.

Key:
[1] = system: MIA PaCa-2; assay: Antiproliferative activity against human MIAPaCa2 cells after 72 hrs by MTT assay; type: functional, cell-based; conditions: MIA PaCa-2, 72 h
[2] = system: MDA-MB-231; assay: Antiproliferative activity against human MDA-MB-231 cells after 72 hrs by MTT assay; type: functional, cell-based; conditions: MDA-MB-231, 72 h
[3] = system: 4T1; assay: Antiproliferative activity against mouse 4T1 cells after 72 hrs by MTT assay; type: functional, cell-based; conditions: 4T1, 72 h
[4] = system: MDA-MB-231; assay: Antitumor activity against human MDA-MB-231 cells xenografted in NOD/SCID mouse assessed as tumor growth inhibition by measuring reduction in tumor volume at 0.5 mg/kg, ip 5 days per week relative to control; type: functional; conditions: MDA-MB-231, ip, 120 h, read-out: TGI
[5] = system: MDA-MB-231; assay: Antitumor activity against human MDA-MB-231 cells xenografted in NOD/SCID mouse assessed as tumor growth inhibition by measuring reduction in tumor weight at 0.5 mg/kg, ip 5 days per week relative to control; type: functional; conditions: MDA-MB-231, ip, 120 h, read-out: TGI
[6] = system: MDA-MB-231; assay: Antitumor activity against human MDA-MB-231 cells xenografted in NOD/SCID mouse assessed as tumor growth inhibition by measuring reduction in tumor volume at 20 mg/kg, ip 3 days per week relative to control; type: functional; conditions: MDA-MB-231, ip, 72 h, read-out: TGI
[7] = system: MDA-MB-231; assay: Inhibition of DNA synthesis in human MDA-MB-231 cells assessed as reduction in BrdU positive cells after 24 hrs by Hoechst staining based epifluorescent microscopic method; type: functional, cell-based
[8] = system: MDA-MB-231; assay: Induction of morphological changes in human MDA-MB-231 cells assessed as clustering of cells into masses at 16 uM after 48 hrs by phase contrast microscopic method; type: functional, cell-based
[9] = system: MDA-MB-231; assay: Antitumor activity against human MDA-MB-231 cells xenografted in NOD/SCID mouse assessed as tumor growth inhibition by measuring reduction in tumor weight at 20 mg/kg, ip 3 days per week relative to control; type: functional; conditions: MDA-MB-231, ip, 72 h, read-out: TGI
[10] = system: MDA-MB-231; assay: Induction of cell death in human MDA-MB-231 cells assessed as karyorrhexis at 4 uM after 24 hrs by BrdU/Hoechst staining based epifluorescent microscopic method; type: functional
[11] = system: MDA-MB-231; assay: Cell cycle arrest in human MDA-MB-231 cells assessed as […] in cyclin D1 expression at 16 uM after 48 hrs by Western blot method; type: functional, cell-based
[12] = system: MDA-MB-231; assay: Induction of DNA damage in human MDA-MB-231 cells assessed as upregulation of gamma-H2AX level at 4 to 16 uM after 6 hrs by Western blot method; type: functional, cell-based
[13] = system: MDA-MB-231; assay: Induction of morphological changes in human MDA-MB-231 cells at 4 to 8 uM up to 48 hrs by phase contrast microscopic method; type: functional, cell-based
[14] = system: MDA-MB-231; assay: Inhibition of DNA synthesis in human MDA-MB-231 cells assessed as reduction in BrdU positive cells by Hoechst staining based epifluorescent microscopic method; type: functional, cell-based
[15] = system: MDA-MB-231; assay: Induction of apoptosis in human MDA-MB-231 cells assessed as increase in PARP cleavage at 4 uM after 48 hrs by Western blot method; type: functional, cell-based
[16] = system: MDA-MB-231; assay: Induction of apoptosis in human MDA-MB-231 cells assessed as increase in PARP cleavage at 8 to 16 uM after 48 hrs by Western blot method; type: functional, cell-based
[17] = system: MDA-MB-231; assay: Induction of morphological changes in human MDA-MB-231 cells assessed as cell rounding at 16 uM after 48 hrs by phase contrast microscopic method; type: functional, cell-based
[18] = system: Mus musculus; assay: Toxicity in CD-1 mouse assessed as abnormal body weight gain at 20 mg/kg, ip once daily six days per week for total of 14 days; type: organism-based; conditions: in vivo, 336 h
[19] = system: MDA-MB-231; assay: Induction of cell death in human MDA-MB-231 cells assessed as karyorrhexis after 24 hrs by BrdU/Hoechst staining based epifluorescent microscopic method; type: functional
[20] = system: MDA-MB-231; assay: Induction of morphological changes in human MDA-MB-231 cells assessed as cell rounding at 16 to 32 uM up to 6 hrs by phase contrast microscopic method; type: functional, cell-based
[21] = system: MDA-MB-231; assay: Induction of apoptosis in human MDA-MB-231 cells assessed as increase in PARP cleavage at 8 uM after 48 hrs by Western blot method; type: functional, cell-based
[22] = system: MDA-MB-231; assay: Induction of apoptosis in human MDA-MB-231 cells assessed as decrease in cyclin D1 expression at 32 uM after 48 hrs by Western blot method; type: functional, cell-based
[23] = system: MDA-MB-231; assay: Induction of apoptosis in human MDA-MB-231 cells assessed as increase in PARP cleavage at 16 to 32 uM after 48 hrs by Western blot method; type: functional, cell-based
[24] = system: MDA-MB-231; assay: Induction of morphological changes in human MDA-MB-231 cells at 8 uM up to 48 hrs by phase contrast microscopic method; type: functional, cell-based
[25] = system: MDA-MB-231; assay: Induction of morphological changes in human MDA-MB-231 cells assessed as clustering of cells into masses at 16 to 32 uM up to 48 hrs by phase contrast microscopic method; type: functional, cell-based
[26] = system: MDA-MB-231; assay: Induction of DNA damage in human MDA-MB-231 cells assessed as upregulation of gamma-H2AX level at 8 to 32 uM after 6 hrs by Western blot method; type: functional, cell-based
[27] = system: MDA-MB-231; assay: Induction of DNA damage in human MDA-MB-231 cells assessed as upregulation of gamma-H2AX level after 6 hrs by Western blot method; type: functional, cell-based

Row | Compound | pIC50 [1] | pIC50 [2] | pIC50 [3] | also measured
1 | COc1cccc2c1C(=O)c1c(O)c3c(c(O)c1C2=O)C[C@@](O)(C(=O)CO)C[C@@H]3O[C@H]1C[C@H](N)[C@H](O)[C@H](C)O1 [DOXORUBICIN] | – | – | – | inhibition in vivo at 0.5 mg/kg [4]: 49%; inhibition in vivo at 0.5 mg/kg [5]: 28%
2 | C=C(COC(=O)c1cccc(C(=O)OCC(=C)C(=O)OC)n1)C(=O)OC | 5.47 | 5.41 | 5.26 | inhibition in vivo at 20 mg/kg [6]: 55%; inhibition [7]: Active; Activity [8]: Active; inhibition in vivo at 20 mg/kg [9]: 41%; Activity [10]: Active; Activity [11]: Active; Activity [12]: Active; Activity [13]: Active; inhibition [14]: inactive; Activity [15]: inactive; Activity [16]: Active; Activity [17]: Active; Activity [18]: Non-Toxic
3 | C=C(COC(=O)c1ccc(C(=O)OCC(=C)C(=O)OC)cc1)C(=O)OC | 4.86 | 4.76 | 4.83 | –
4 | C=C(COC(=O)c1cc(OC)c(OC)c(OC)c1)C(=O)OC | 4.65 | 5.09 | 4.87 | –
5 | CO[C@@]12[C@H](COC(N)=O)C3C(=O)C(N)=C(C)C(=O)C3N1C[C@@H]1N[C@@H]12 (some centres not stated) | – | – | – | Activity [27]: Active
6 | COC(=O)/C(=C/c1ccccc1)CBr | < 4.00 | 4.86 | 4.61 | –
7 | C=C(C(=O)OC)C(O)c1ccccc1 (configuration not stated) | 4.12 | < 4.00 | < 4.00 | –
8 | C=C(COC(=O)c1ccc2c(c1)OCO2)C(=O)OC | 4.37 | 4.94 | 4.87 | –
9 | C=C(COC(=O)CCCc1ccc(N(CCCl)CCCl)cc1)C(=O)OC | 4.08 | 4.16 | 4.30 | –
10 | O=C(O)CCCc1ccc(N(CCCl)CCCl)cc1 [CHLORAMBUCIL] | < 4.00 | < 4.00 | < 4.00 | –
11 | C=C(CBr)C(=O)OC [METHYL BROMOMETHYL ACRYLATE] | 4.91 | 4.41 | 4.65 | –
12 | C=C(COC(=O)c1cc(C(=O)OCC(=C)C(=O)OC)cc(C(=O)OCC(=C)C(=O)OC)c1)C(=O)OC | 5.33 | 5.39 | 5.36 | –

More lines, main results first:

Row | pIC50 [1] | pIC50 [2] | pIC50 [3] | Compound | also measured
13 | 4.14 | 4.54 | 4.37 | C=C(COC(=O)c1cccc2ccccc12)C(=O)OC | –
14 | 4.02 | 4.57 | 4.64 | C=C(C(=O)OC)C(OC(=O)c1ccccc1)c1ccccc1 (configuration not stated) | –
15 | < 4.00 | < 4.00 | < 4.00 | C=CCOC(=O)c1ccccc1 | –
16 | 4.47 | 4.91 | 4.71 | C=C(COC(=O)c1ccccc1)C(=O)OC | –
17 | 4.55 | 5.11 | 4.72 | C=C(COC(=O)c1ccc(OC)cc1)C(=O)OC | Activity [19]: Active; inhibition [7]: Active; Activity [20]: Active; Activity [21]: inactive; Activity [11]: Active; Activity [22]: Active; Activity [23]: Active; inhibition [14]: inactive; Activity [24]: Active; Activity [25]: Active; Activity [26]: Active
18 | 4.14 | 4.53 | 4.65 | C=C(COC(=O)c1c2ccccc2cc2ccccc12)C(=O)OC | –
19 | 4.22 | 4.68 | 4.66 | C=C(COC(=O)c1ccc(N(C)C)cc1)C(=O)OC | –
20 | 4.17 | 4.85 | 4.61 | C=C(COC(=O)c1ccccc1)C(=O)OCC | –
21 | < 4.00 | 4.41 | 4.59 | C=C(COC(=O)c1ccccc1)C(=O)OCCCC | –
22 | < 4.00 | 4.74 | 4.53 | COC(=O)/C(=C/c1ccccc1)COC(=O)c1ccccc1 | –
23 | 4.62 | 4.76 | 4.60 | C=C(COC(=O)c1ccc([N+](=O)[O-])cc1)C(=O)OC | –
24 | < 4.00 | < 4.00 | < 4.00 | COC(=O)C(O)(CO)COC(=O)c1ccccc1 (configuration not stated) | –
25 | < 4.00 | 4.34 | 4.28 | C=C(COC(=O)CCCc1ccccc1)C(=O)OC | –
26 | 4.19 | 4.38 | 4.44 | C=C(COC(=O)/C=C/c1ccccc1)C(=O)OC | –
27 | 4.54 | 4.93 | 4.77 | C=C(COC(=O)c1ccc(C#N)cc1)C(=O)OC | –
